35 compounds from patent publication EP4700021A1, “NOVEL COMPOUND AND PHARMACEUTICAL COMPOSITION COMPRISING SAME AS ACTIVE INGREDIENT” (Sapiensbio Inc., priority 2023, dated 2025) can be followed below.

The test system of the test is α-SMA. Nature of the test: in vitro α-SMA expression inhibition (immunostaining, confocal microscopy) in TGF-β1-treated MRC-5 cells. The class given is cell-based, human. The following applies: TGF-β1 (5 ng/mL), 72 hours, standardized using GAPDH. The text has this: When scars are generated in tissue, fibroblasts undergo fibroblast-to-myofibroblast transition (FMT), and the resulting myofibroblasts produce the extracellular matrix, leading to tissue fibrosis. α-SMA is a representative biomarker of myofibroblasts, and its expression greatly increases as FMT progresses. Accordingly, through the evaluation of α-SMA expression inhibitory activity, the efficacy of the compounds in inhibiting fibrosis may be evaluated. Therefore, the inhibitory activity of the compounds of the present invention on α-SMA expression was evaluated in cells. To more accurately evaluate the inhibition of α-SMA expression, IC50 values were determined by treating human lung-derived fibroblasts (MRC-5 cells) with the compounds of the present invention in a concentration-dependent manner.
Specifically, 2 hours after the MRC-5 cells were treated with DMSO or compounds dissolved in serum containing 0.5% fetal bovine serum (FBS) in a concentration-dependent manner, fibrosis was induced by treatment with TGF-β1 (5 ng/mL). After 72 hours, the cells were immobilized with a 2% paraformaldehyde solution for 10 minutes, and to impart cell membrane permeability, a 0.1% Triton X-100 solution was treated for 10 minutes, and a 1% bovine serum albumin (BSA) solution was treated to prevent non-specific binding. For immunostaining, anti-GAPDH (BIO-RAD) was first treated as a primary antibody, and Alexa Fluor™ Plus 555 for GAPDH labeling was used as a secondary antibody. For α-SMA staining, an FITC fluorescence-tagged α-SMA primary antibody was used, and thus the increase and decrease in α-SMA caused by the compounds were evaluated. The immunohistochemical experimental results were confirmed with a STELLARIS 5 confocal microscope (Leica), and FITC-stained α-SMA was standardized using GAPDH labeled with Alexa FluorTM Plus 555 for quantification. The IC50 of the compounds according to the present invention was calculated through statistical analysis (linear mixed effects model). […]

Structures can show the parent of a compound that is named as a salt.

As for `N[C@H]1CCN(C(=O)N2CCN(Cc3cccc(F)c3)c3ccccc32)C1` [Compound 39, (S)-(3-aminopyrrolidin-1-yl)(4-(3-fluorobenzyl)-3,4-dihydroquinoxaline-1(2H)-yl)methanone], the half-inhibitory concentration (IC50) – broadly, the point on the concentration scale where inhibition reaches its midpoint – (Homo sapiens) is less than 1 µM. The compound `CC1(CNC(=O)N2CCN(Cc3ccccn3)c3ccccc32)COC1` [Compound 57, N-((3-methyloxetan-3-yl)methyl)-4-(pyridin-2-ylmethyl)-3,4-dihydroquinoxaline-1(2H)-carboxamide] had a half-maximal inhibitory concentration (IC50) (Homo sapiens) not above 30 µM.

Where the note is “Homo sapiens”, `O=C(NC1CCNCC1)N1CCN(c2cnccn2)c2ccccc21` [Compound 23, N-(piperidin-4-yl)-4-(pyrazin-2-yl)-3,4-dihydroquinoxaline-1(2H)-carboxamide] displayed a half-inhibitory concentration (IC50) of 1 to 10 µM. For the setting “Homo sapiens”, `O=C(NCC1CCNCC1)N1CCN(Cc2ccc(F)cn2)c2ccccc21` [Compound 66, 4-((5-fluoropyridine-2-yl)methyl)-N-(piperidin-4-ylmethyl)-3,4-dihydroquinoxaline-1(2H)-carboxamide oxalic acid salt] had a 50% inhibitory concentration (IC50) of less than 1 µM. Where the note is “Homo sapiens”, `O=C(NC[C@H]1CCCN1)N1CCN(Cc2ccccn2)c2ccccc21` [Compound 52, (R)-4-(pyridin-2-ylmethyl)-N-(pyrrolidin-2-ylmethyl)-3,4-dihydroquinoxaline-1(2H)-carboxamide] returned an IC50 of 1 to 10 µM.

With `O=C(N[C@@H]1CCNC1)N1CCN(Cc2ccccc2)c2ccccc21` [Compound 33, (R)-4-benzyl-N-(pyrrolidin-3-yl)-3,4-dihydroquinoxaline-1(2H)-carboxamide], the IC50 (Homo sapiens) was 1 to 10 µM.

For the setting “Homo sapiens”, `O=C(NC1CCNCC1)N1CCN(Cc2ccccn2)c2ccccc21` [Compound 53, N-(piperidin-4-yl)-4-(pyridin-2-ylmethyl)-3,4-dihydroquinoxaline-1(2H)-carboxamide] gave an IC50 of 1 to 10 µM.

On to `CN1CCC(CNC(=O)N2CCN(Cc3ncccc3F)c3ccccc32)CC1` [Compound 69, 4-((3-fluoropyridin-2-yl)methyl)-N-((1-methylpiperidin-4-yl)methyl)-3,4-dihydroquinoxaline-1(2H)-carboxamide], for which the IC50 (Homo sapiens) lay within 1 to 10 µM.

For the compound `O=C(N[C@H]1CCNC1)N1CCN(c2cnccn2)c2ccccc21` [Compound 19, (S)-4-(pyrazin-2-yl)-N-(pyrrolidin-3-yl)-3,4-dihydroquinoxaline-1(2H)-carboxamide], the half-inhibitory concentration (IC50) (Homo sapiens) was 1 to 10 µM.

Regarding `CN1CC[C@H](NC(=O)N2CCN(c3cnccn3)c3ccccc32)C1` [Compound 20, (S)-N-(1-methylpyrrolidin-3-yl)-4-(pyrazin-2-yl)-3,4-dihydroquinoxaline-1(2H)-carboxamide], where the note is “Homo sapiens”, the IC50 was less than 1 µM. In the case of `CC(C)N1CC[C@H](NC(=O)N2CCN(c3ccccn3)c3ccccc32)C1` [Compound 11, (S)-N-(1-isopropylpyrrolidin-3-yl)-4-(pyridin-2-yl)-3,4-dihydroquinoxaline-1(2H)-carboxamide], the IC50 (Homo sapiens) fell in the range of 1 to 10 µM. Under “Homo sapiens”, `O=C(NC1CCNCC1)N1CCN(c2ccccn2)c2ccccc21` [Compound 13, N-(piperidin-4-yl)-4-(pyridin-2-yl)-3,4-dihydroquinoxaline-1(2H)-carboxamide] registered a concentration for half-maximal inhibition (IC50) of 1 to 10 µM. `O=C(NC[C@@H]1CCNC1)N1CCN(c2ccccn2)c2ccccc21` [Compound 14, (R)-4-(pyridin-2-yl)-N-(pyrrolidin-3-ylmethyl)-3,4-dihydroquinoxaline-1(2H)-carboxamide]: the concentration for half-maximal inhibition (IC50) (Homo sapiens) fell in the range of 1 to 10 µM. `O=C(NCC1COC1)N1CCN(Cc2ccccn2)c2ccccc21` [Compound 56, N-(oxetan-3-ylmethyl)-4-(pyridin-2-ylmethyl)-3,4-dihydroquinoxaline-1(2H)-carboxamide] gave a 50% inhibitory concentration (IC50) (Homo sapiens) of 10 to 30 µM. The compound `O=C(NC[C@H]1CCCN1)N1CCN(c2ccccn2)c2ccccc21` [Compound 15, (R)-4-(pyridin-2-yl)-N-(pyrrolidin-2-ylmethyl)-3,4-dihydroquinoxaline-1(2H)-carboxamide] returned an IC50 (Homo sapiens) of less than 1 µM. For `CC(C)(C)CC(=O)N1CCN(C(=O)NCC2CCNCC2)c2ccccc21` [Compound 79, 4-(3,3-dimethylbutanoyl)-N-(piperidin-4-ylmethyl)-3,4-dihydroquinoxaline-1(2H)-carboxamide], the half-inhibitory concentration (IC50) (Homo sapiens) is not above 30 µM. Compound `CN1CC[C@@H](COC(=O)N2CCN(Cc3ccccn3)c3ccccc32)C1` [Compound 64, (R)-(1-methylpyrrolidin-3-yl)methyl-4-(pyridin-2-ylmethyl)-3,4-dihydroquinoxaline-1(2H)-carboxylate] came in with an IC50 (Homo sapiens) of less than 1 µM. Turning to `CN[C@H]1CCN(C(=O)N2CCN(Cc3ccccc3F)c3ccccc32)C1` [Compound 38, (S)-(4-(2-fluorobenzyl)-3,4-dihydroquinoxaline-1(2H)-yl)(3-(methylamino)pyrrolidin-1-yl)methanone], the IC50 (Homo sapiens) lay in the range of 1 to 10 µM. Still for that read-out and setting: the figure for `O=C(N1CCOCC1)N1CCN(c2ccccc2Cl)c2ccccc21` [Compound 9, (4-(2-chlorophenyl)-3,4-dihydroquinoxaline-1(2H)-yl)(morpholino)methanone] is not above 30 µM; for `CC1(NC(=O)N2CCN(Cc3ccccn3)c3ccccc32)COC1` [Compound 55, N-(3-Methyloxetan-3-yl)-4-(pyridin-2-ylmethyl)-3,4-dihydroquinoxaline-1(2H)-carboxamide] it is less than 1 µM; for `O=C(N[C@@H]1CCOC1)N1CCN(c2cccnc2)c2ccccc21` [Compound 16, (R)-4-(pyridin-3-yl)-N-(tetrahydrofuran-3-yl)-3,4-dihydroquinoxaline-1 (2H)-carboxamide] it is 1 to 10 µM. For the setting “Homo sapiens”, `N[C@H]1CCN(C(=O)N2CCN(Cc3ccccc3F)c3ccccc32)C1` [Compound 37, (S)-(3-aminopyrrolidin-1-yl)(4-(2-fluorobenzyl)-3,4-dihydroquinoxaline-1(2H)-yl)methanone] displayed an IC50 of 1 to 10 µM. Still for that read-out and setting: the figure for `O=C(NC1COC1)N1CCN(Cc2ccccn2)c2ccccc21` [Compound 54, N-(oxetan-3-yl)-4-(pyridin-2-ylmethyl)-3,4-dihydroquinoxaline-1(2H)-carboxamide] is less than 1 µM; for `O=C(N1CCCC1)N1CCN(c2ccccc2Cl)c2ccccc21` [Compound 8, (4-(2-chlorophenyl)-3,4-dihydroquinoxaline-1(2H)-yl)(pyrrolidin-1-yl)methanone] it is 10 to 30 µM.

With “(S)-N-(1-isobutylpyrrolidin-3-yl)-4-(pyrazin-2-ylmethyl)-3,4-dihydroquinoxaline-1(2H)-carboxamide [Compound 44]”, the concentration for half-maximal inhibition (IC50) was not above 30 µM.

As to `CN1CCC(NC(=O)N2CCN(c3ccc(F)cn3)c3ccccc32)CC1` [Compound 18, 4-(5-fluoropyridin-2-yl)-N-(1-methylpiperidin-4-yl)-3,4-dihydroquinoxaline-1(2H)-carboxamide], the 50% inhibitory concentration (IC50) (Homo sapiens) fell in the range of 1 to 10 µM. `CC(C)CC(=O)N1CCN(C(=O)NCC2CCNCC2)c2ccccc21` [Compound 77, 4-(3-Methylbutanoyl)-N-(piperidin-4-ylmethyl)-3,4-dihydroquinoxaline-1(2H)-carboxamide] came in with a 50% inhibitory concentration (IC50) (Homo sapiens) not above 30 µM.

In turn, `CC(C)N[C@H]1CCN(C(=O)N2CCN(Cc3ccccn3)c3ccccc32)C1` [Compound 47, (S)-(3-(isopropylamino)pyrrolidin-1-yl)(4-(pyridin-2-ylmethyl)-3,4-dihydroquinoxaline-1(2H)-yl)methanone] showed a 50% inhibitory concentration (IC50) (Homo sapiens) not above 30 µM. On to `CN1CCC(NC(=S)N2CCN(c3cnccn3)c3ccccc32)CC1` [Compound 29, N-(1-methylpiperidin-4-yl)-4-(pyrazin-2-yl)-3,4-dihydroquinoxaline-1 (2H)-carbothioamide], for which the half-maximal inhibitory concentration (IC50) (Homo sapiens) fell in the range of 1 to 10 µM. For the compound `CN1CCN(C(=O)N2CCN(C3CCCCC3)c3ccccc32)CC1` [Compound 70, (4-cyclohexyl-3,4-dihydroquinoxaline-1(2H)-yl)(4-methylpiperazin-1-yl)methanone], the half-inhibitory concentration (IC50) (Homo sapiens) was in the range of 1 to 10 µM. `O=C(NCC1CC1)N1CCN(c2ccc(F)cc2)c2ccccc21` [Compound 6, N-(cyclopropylmethyl)-4-(4-fluorophenyl)-3,4-dihydroquinoxaline-1(2H)-carboxamide] gave a half-maximal inhibitory concentration (IC50) (Homo sapiens) of 1 to 10 µM. As for `CN1CC[C@@H](COC(=O)N2CCN(c3cnccn3)c3ccccc32)C1` [Compound 31, (R)-(1-methylpyrrolidin-3-yl)methyl-4-(pyrazin-2-yl)-3,4-dihydroquinoxaline-1(2H)-carboxylate], where the note is “Homo sapiens”, the IC50 was in the range of 1 to 10 µM. In turn, `CC(C)(C)CC(=O)N1CCN(C(=O)N2CCNCC2)c2ccccc21` [Compound 78, 3,3-dimethyl-1-(4-(piperazine-1-carbonyl)-3,4-dihydroquinoxaline-1(2H)-yl)butan-1-one] had a 50% inhibitory concentration (IC50) (Homo sapiens) not above 30 µM. As to `O=C(NCC1CCNCC1)N1CCN(Cc2ncccc2F)c2ccccc21` [Compound 68, 4-((3-fluoropyridin-2-yl)methyl)-N-(piperidin-4-ylmethyl)-3,4-dihydroquinoxaline-1(2H)-carboxamide], for the setting “Homo sapiens”, the half-maximal inhibitory concentration (IC50) is not above 30 µM.

With `CN[C@H]1CCN(C(=O)N2CCN(Cc3ccccc3)c3ccccc32)C1` [Compound 36, (S)-(4-benzyl-3,4-dihydroquinoxaline-1(2H)-yl)(3-(methylamino)pyrrolidin-1-yl)methanone], the concentration for half-maximal inhibition (IC50) (Homo sapiens) lay within 10 to 30 µM.
